In experiment [1] the target is T1, human CB1 receptor (Homo sapiens, UniProt P21554).
T1 construct: expressed in transfected cells; host or cells: human embryonic kidney (HEK) cells, Semliki Forest Virus system, membrane preparations
The experiment can be described thus: CB1 receptor affinity ([3H]-CP-55,940 displacement, HEK cell membranes). It counts as binding. The note with it: displacement of [3H]-CP-55,940 at 10 μM; read-out: CB1 receptor affinity [% inhibition @ 10 μM]. The protocol:
(§1) The affinity of the compounds of the invention for cannabinoid receptors was determined using membrane preparations of human embryonic kidney (HEK) cells in which the human CB1 receptor is transiently transfected using a Semliki Forest Virus system in conjunction with [3H]-CP-55,940 as radioligand. After incubation of freshly prepared cell membrane preparation with the [^3H]-ligand, with or without addition of compounds of the invention, separation of bound and free ligand was performed by filtration over glass fiber filters. Radioactivity on the filter was measured by scintillation counting.
(§2) The ability of the compounds to displace the radioligand [^3H]-CP-55,940 was measured at a concentration of 10 μM and values provided as [% inhibition @ 10 μM] both for the CB1 and CB2 receptor assay, The lower % inhibition is, the lower the likelihood of side effects based on CB1 or CB2 receptor inhibition is.
On the technique in general: In a radioligand displacement assay an active substance lowers the binding of a labelled ligand.

Experiment [2] deals with T2, human CB2 receptor (Homo sapiens, UniProt P34972).
T2 construct: expressed in transfected cells; host or cells: human embryonic kidney (HEK) cells, Semliki Forest Virus system, membrane preparations
T2 sequence (P34972 whole entry): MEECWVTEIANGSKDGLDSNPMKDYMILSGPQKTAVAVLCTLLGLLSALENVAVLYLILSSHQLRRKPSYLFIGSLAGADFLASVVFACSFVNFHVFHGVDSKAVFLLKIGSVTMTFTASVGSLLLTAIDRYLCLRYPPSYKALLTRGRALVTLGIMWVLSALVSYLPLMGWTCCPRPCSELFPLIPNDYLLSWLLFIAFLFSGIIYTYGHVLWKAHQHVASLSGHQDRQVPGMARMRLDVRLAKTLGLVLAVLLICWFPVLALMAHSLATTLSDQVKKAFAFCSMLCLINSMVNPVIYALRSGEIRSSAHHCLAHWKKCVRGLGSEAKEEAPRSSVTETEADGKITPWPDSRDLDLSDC
The experiment can be described thus: CB2 receptor affinity ([3H]-CP-55,940 displacement, HEK cell membranes). It counts as binding. Particulars: displacement of [3H]-CP-55,940 at 10 μM. The protocol: as §1, with “cannabinoid CB2” for “cannabinoid”, “CB2” for “CB1”, “[^3H]-CP-55,940” for “[3H]-CP-55,940”
as §2

In experiment [3] the test system is ABCA1 protein. The experiment can be described thus: Detection of upregulation of ABCA1 protein in cells (ApoA-I binding, high content imaging). It counts as cell-based. The note with it: THP-1 macrophage cells; for % increase of ABCA1 at 3 μM: compound at 3 μM, 24 hrs; for EC50: 24 hrs compound incubation, read-out: EC50 [μM] ABCA1 protein increasing efficacy. The protocol: The ability of compounds of the invention to increase the level of ABCA1 protein is determined in replicate cultures of THP-1 macrophage cells in 96-well microplates. Cells are plated at an initial density of 100,000 cells/well in 100 μl medium and differentiated to adherent macrophages with the addition of PMA (100 nM) for 68 hrs in 10% fetal bovine serum, 3 μl/L of b-mercaptoethanol, RPMI-1640 medium. Then, cells are incubated with RPMI-1640 medium containing 1% FCS, 25 μg/ml acetylated LDL, for 24 hours at 37° C. Following incubation with acetylated LDL, cells are washed twice with 50 μl PBS and incubated with 100 μl of RPMI-1640 medium containing the compound of interest solubilized in DMSO for an additional 24 hrs. The final DMSO concentration in presence of cells is maintained at 0.5%. ApoA-I binding assay using High Content Image Analysis is initiated by replacing with fresh medium, RPMI without Phenol Red, 0.2% BSA containing AlexaFluor®647 labeled ApoA-I for 2 h/37° C./5% CO2. Then, cells are fixed with 4% Formaldehyde in PBS (15 min, RT). Following Nuclei are stained with Hoechst solution (3 μM PBS) and Cytoplasm with Cell Mask Blue (2 μg/ml PBS), 15 min, RT. Finally the stained cells are fixed with a second round of formaldehyde treatment. Fixed stained cells are washed and kept in PBS at 4° C. and can be read immediately until one month after preparation.
The Alexa Fluor 647-labeled Apolipoprotein A-I (20 nM) was prepared as follows: Human recombinant Apolipoprotein A-I (ApoA-I) was exchanged to a buffer of 0.02 M NaHCO3 at pH 8.2 on an NAP desalting column (GE Healthcare) and brought to a concentration to 40 μM (1.13 mg/ml) by adjustment with the same buffer. The ApoA-I was fluorescently labeled by incubation with Alexa Fluor carboxylic acid succimidyl ester (Alexa Fluor 647, Invitrogen A-20006) at a 2:1 molar ratio (Alexa to ApoA-I) for 1 h under shaking at RT. The remaining unconjugated label was removed by buffer exchange to 0.02M NaHCO3 at pH 8.2.
Imaging and data collection were performed on an OPERA confocal microplate imaging reader using a 20× water immersion objective and UV360 or 405 laser to identify the cell nuclei and a 635 laser to identify the fluorescent ApoA-I. Eight fields of view are captured per well. Image capture and analysis was performed with the Acapella software. Background fluorescence detected in control wells without ApoA-I was subtracted.
Using XLfit3 program (ID Business Solutions Ltd. UK), the model 205 for Dose Response One Site is used to calculate the EC50 values. […] More particularly, the compounds of the present invention have EC50 values in a range of 0.1 μM to 3 μm.

Each structure is given as a SMILES string. Bounds are passed on as bounds.

T1 sequence (P21554 whole entry): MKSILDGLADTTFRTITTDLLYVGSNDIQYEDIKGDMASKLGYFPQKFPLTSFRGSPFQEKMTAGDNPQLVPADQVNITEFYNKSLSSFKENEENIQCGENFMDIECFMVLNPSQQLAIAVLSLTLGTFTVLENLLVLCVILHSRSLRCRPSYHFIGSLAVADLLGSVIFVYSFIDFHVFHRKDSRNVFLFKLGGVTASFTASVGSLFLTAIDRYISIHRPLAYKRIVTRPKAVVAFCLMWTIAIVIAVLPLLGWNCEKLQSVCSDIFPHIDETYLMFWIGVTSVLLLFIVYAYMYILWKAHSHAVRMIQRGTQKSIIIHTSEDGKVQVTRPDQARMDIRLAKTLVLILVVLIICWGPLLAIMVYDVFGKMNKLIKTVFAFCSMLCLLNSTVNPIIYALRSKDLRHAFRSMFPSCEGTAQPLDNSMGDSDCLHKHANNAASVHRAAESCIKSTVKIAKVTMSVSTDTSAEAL

Regarding `NNC(=O)c1cnc(OCC(F)(F)F)c(-c2ccc(Cl)c(F)c2)c1` [Example 9, 5-(4-chloro-3-fluorophenyl)-6-(2,2,2-trifluoroethoxy)-3-pyridinecarboxylic acid hydrazide], the inhibition at 10 µM in experiment [1] is 11%; in experiment [2], -2%. Moreover, the “% increase of ABCA1 at 3 μM” value in experiment [3] is >45%@ 3 μM.
The corresponding values for `CN(NC(=O)c1cnc(OC2CCC2)c(C2CC2)c1)c1ccc(C#N)cc1` [Example 55, 6-cyclobutoxy-5-cyclopropyl-nicotinic acid N′-(4-cyano-phenyl)-N′-methyl-hydrazide] are 27%, 18% and >45%@ 3 μM.
For `CN(NC(=O)c1cnc(OCC2CC2)c(C2CC2)c1)c1ccc(F)cc1` [Example 41, 5-cyclopropyl-6-cyclopropylmethoxy-nicotinic acid N′-(4-fluoro-phenyl)-N′-methyl-hydrazide], the inhibition at 10 µM in experiment [1] was determined as 29%; in experiment [2], 38%. Also, in experiment [3], the EC50 stood at 1.1 µM.
The corresponding values for `CN(NC(=O)c1cnc(OCC(F)(F)F)c(C2CCN(C(=O)OC(C)(C)C)CC2)c1)c1ccc(F)cc1` [Example 40, 5-[N′-(4-fluoro-phenyl)-N′-methyl-hydrazinocarbonyl]-2-(2,2,2-trifluoro-ethoxy)-3′,4′,5′,6′-tetrahydro-2′H-[3,4′]bipyridinyl-1′-carboxylic acid tert-butyl ester] are 50%, 3% and 0.68 µM.
The corresponding values for `N#Cc1ccc(-c2cc(C(=O)NN3CCC(O)CC3)cnc2OCC(F)(F)F)cc1` [Example 36, 5-(4-cyano-phenyl)-N-(4-hydroxy-piperidin-1-yl)-6-(2,2,2-trifluoro-ethoxy)-nicotinamide] are 10%, -4% and 1.86 µM.
In the case of `C[C@@H]1CN(NC(=O)c2cnc(OCC3CC3)c(C3CC3)c2)C[C@H](C)O1` [Example 45, 5-cyclopropyl-6-cyclopropylmethoxy-N-((2R,6S)-2,6-dimethyl-morpholin-4-yl)-nicotinamide], the figures for the inhibition at 10 µM in experiment [1] and in experiment [2] were 19% and 17%, respectively. Besides, the EC50 in experiment [3] was 9.4 µM.
Turning to `CN(NC(=O)c1cnc(OCC2CC2)c(C2CC2)c1)c1ccc(C#N)cc1` [Example 53, 5-cyclopropyl-6-cyclopropylmethoxy-nicotinic acid N′-(4-cyano-phenyl)-N′-methyl-hydrazide], the inhibition at 10 µM in experiment [1] was determined as 47%; in experiment [2], 48%. For the same molecule, the “% increase of ABCA1 at 3 μM” value in experiment [3] was >45%@ 3 μM.
As for `CN(NC(=O)c1cnc(OCC(F)(F)F)c(C2CCCCC2)c1)c1ccccc1` [Example 20, 5-cyclohexyl-N′-methyl-N′-phenyl-6-(2,2,2-trifluoroethoxy)-3-pyridinecarboxylic acid hydrazide], the inhibition at 10 µM in experiment [1] turned out to be 39%; in experiment [2], 9%. For the same molecule, the “% increase of ABCA1 at 3 μM” value in experiment [3] is listed as >45%@ 3 μM.
Regarding `COC[C@@H]1CCCN1NC(=O)c1cnc(OCC(F)(F)F)c(C2CC2)c1` [Example 33, 5-cyclopropyl-N—((S)-2-methoxymethyl-pyrrolidin-1-yl)-6-(2,2,2-trifluoro-ethoxy)-nicotinamide], the inhibition at 10 µM is 21% in experiment [1] and 3% in experiment [2]. The concentration giving a half-maximal response (EC50) in experiment [3] came out at 0.68 µM.
The corresponding values for `O=C(NNc1ccc(F)cc1)c1cnc(OC2CCC2)c(-c2ccco2)c1` [Example 48, 6-cyclobutoxy-5-furan-2-yl-nicotinic acid N′-(4-fluoro-phenyl)-hydrazide] are 43%, -2% and 0.8 µM.
For the molecule `O=C(NN1CCN(CCO)CC1)c1cnc(OCC(F)(F)F)c(-c2ccc(Cl)cc2)c1` [Example 25, 5-(4-chlorophenyl)-N-(4-(2-hydroxyethyl)piperazin-1-yl)-6-(2,2,2-trifluoroethoxy)-3-pyridinecarboxamide], the inhibition at 10 µM is 14% in experiment [1] and -18% in experiment [2]. Moreover, in experiment [3], the “% increase of ABCA1 at 3 μM” value is >45%@ 3 μM.
The corresponding values for `CN(NC(=O)c1cnc(OCC(F)(F)F)c(-c2ccc(Cl)cc2)c1)c1ccc(Cl)nn1` [Example 8, 5-(4-chlorophenyl)-N′-(6-chloropyridazin-3-yl)-N′-methyl-6-(2,2,2-trifluoroethoxy)-3-pyridinecarboxylic acid hydrazide] are 38%, 18% and >45%@ 3 μM.
On to `CS(=O)(=O)N1CCN(NC(=O)c2cnc(OCC(F)(F)F)c(-c3ccc(Cl)cc3)c2)CC1` [Example 13, 5-(4-chlorophenyl)-N-(4-(methylsulfonyl)piperazin-1-yl)-6-(2,2,2-trifluoroethoxy)-3-pyridinecarboxamide], for which the inhibition at 10 µM in experiment [1] turned out to be 23%; in experiment [2], 1%. In addition, the EC50 in experiment [3] was 0.33 µM.
The corresponding values for `CC(C)(C)OC(=O)N1CCC(c2cc(C(=O)NN3CCC(CCO)CC3)cnc2OCC(F)(F)F)CC1` [Example 39, 5-[4-(2-hydroxy-ethyl)-piperidin-1-ylcarbamoyl]-2-(2,2,2-trifluoro-ethoxy)-3′,4′,5′,6′-tetrahydro-2′H-[3,4′]bipyridinyl-1′-carboxylic acid tert-butyl ester] are -3%, -5% and 1.8 µM.
For the molecule `CN(CCCO)NC(=O)c1cnc(OCC(F)(F)F)c(-c2ccc(Cl)cc2)c1` [Example 28, 5-(4-chlorophenyl)-N′-(3-hydroxypropyl)-N′-methyl-6-(2,2,2-trifluoroethoxy)-3-pyridinecarboxylic acid hydrazide], the inhibition at 10 µM in experiment [1] was 46%; in experiment [2] it was -9%. In addition, the “% increase of ABCA1 at 3 μM” value in experiment [3] is recorded as >45%@ 3 μM.
Regarding `O=C(NN1CCC(O)CC1)c1cnc(OC2CCC2)c(-c2ccc(Cl)cc2)c1` [Example 11, 5-(4-chlorophenyl)-6-cyclobutoxy-N-(4-hydroxypiperidin-1-yl)-3-pyridinecarboxamide], the inhibition at 10 µM in experiment [1] was 14%; in experiment [2], -8%. For the same molecule, the EC50 in experiment [3] stood at 0.18 µM.
The corresponding values for `O=C(NN1CCOCC1)c1cnc(OCC(F)(F)F)c(C2CCCCC2)c1` [Example 19, 5-cyclohexyl-N-morpholino-6-(2,2,2-trifluoroethoxy)-3-pyridinecarboxamide] are 29%, -23% and 5.39 µM.
The corresponding values for `N#Cc1ccc(-c2cc(C(=O)NN3CCOCC3)cnc2OCC(F)(F)F)cc1` [Example 37, 5-(4-cyano-phenyl)-N-morpholin-4-yl-6-(2,2,2-trifluoro-ethoxy)-nicotinamide] are 47%, -8% and 1.32 µM.

In general, inhibition refers to the drop in the measured response relative to a control, in per cent. In general, EC50 refers to the concentration needed to bring the measured effect to its halfway point.

Values taken from patent US8648099B2 (Hoffmann-La Roche Inc., priority 2011, dated 2014).
